# Reference: patent US20230339886A1 (University of Florida Research Foundation, Incorporated, priority 2020, published 2023)
# Target: T1, REV-ERBα LBD (human; residues 281-614 Δ324-422) (Homo sapiens, UniProt P20393, DEL324-422)
# T1 construct: 6×Histag-REV-ERBα LBD (human; residues 281-614 Δ324-422); made in house; host or cells: Escherichia coli
# Test: TR-FRET corepressor interaction assay (REV-ERBα LBD, FITC-SMRT peptide)
# Format: biochemical
# Conditions: FITC-SMRT peptide, read-out: REVERBα agonism (EC50 class, FRET assay)
# In short: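 Compound serial dilutions (in DMSO, triplicate) incubated 2 h at 4 °C; Tb donor excited at 340 nm, emission read at 495 nm and FITC acceptor at 520 nm. TR-FRET ratio (520/495 nm) plotted against ligand concentration and fitted to a sigmoidal dose-response curve.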
# T1 sequence (P20393 with tags, fused parts or gaps DEL324-422): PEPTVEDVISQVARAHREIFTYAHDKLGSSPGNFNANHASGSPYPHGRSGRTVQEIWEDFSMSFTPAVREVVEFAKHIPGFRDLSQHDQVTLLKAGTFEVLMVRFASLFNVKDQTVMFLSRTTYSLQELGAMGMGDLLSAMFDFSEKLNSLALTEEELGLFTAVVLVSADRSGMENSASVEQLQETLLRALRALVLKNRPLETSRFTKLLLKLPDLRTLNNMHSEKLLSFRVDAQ
# T1 sequence (Q9Y618 2335-2356 partner limits assumed): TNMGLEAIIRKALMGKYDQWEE
row,Structure (SMILES),EC50 [nM]
1,"N#CC1(Cn2cc([C@H](NS(=O)(=O)C3CC3)C(F)(F)F)c3cc(F)c(-c4ccccc4C(F)(F)F)cc32)CC1 [Example 476, N-[(1S)-1-[1-[(1-cyanocyclopropyl)methyl]-5-fluoro-6-[2-(trifluoromethyl)phenyl]indol-3-yl]-2,2,2-trifluoro-ethyl]cyclopropanesulfonamide]",500 to 3000
2,"CC(C)(C)Cn1cc([C@H](NS(=O)(=O)C2CC2)C(F)(F)F)c2cc(F)c(-c3cccc4c3CCCC4)cc21 [Example 477, N-[(1S)-1-[1-(2,2-dimethylpropyl)-5-fluoro-6-tetralin-5-yl-indol-3-yl]-2,2,2-trifluoro-ethyl]cyclopropanesulfonamide]",500 to 3000
3,"CC(C)(O)Cn1cc([C@H](NS(=O)(=O)C2CCC2)C(F)(F)F)c2cc(F)c(-c3ccccc3C(F)(F)F)cc21 [Example 478, N-[(1S)-2,2,2-trifluoro-1-[5-fluoro-1-(2-hydroxy-2-methyl-propyl)-6-[2-(trifluoromethyl)phenyl]indol-3-yl]ethyl]cyclobutanesulfonamide]",500 to 3000
4,"CC(C)(C)Cn1cc([C@H](NS(=O)(=O)C2CCC2)C(F)(F)F)c2cc(F)c(-c3cccc4c3CCCC4)cc21 [Example 479, N-[(1S)-1-[1-(2,2-dimethylpropyl)-5-fluoro-6-tetralin-5-yl-indol-3-yl]-2,2,2-trifluoro-ethyl]cyclobutanesulfonamide]",< 500
5,"CC(C)(C)C(=O)n1cc([C@H](NS(=O)(=O)C2CC2)C(F)(F)F)c2ccc(-c3ccccc3C(F)(F)F)cc21 [Example 480, (S)—N-(2,2,2-trifluoro-1-(1-pivaloyl-6-(2-(trifluoromethyl)phenyl)-1H-indol-3-yl)ethyl)cyclopropanesulfonamide]",500 to 3000
6,"CC(C)(C)Cn1cc(CCNS(=O)(=O)C2CC2)c2ccc(-c3ccc(C(F)(F)F)cc3C(F)(F)F)cc21 [Example 481, N-(2-(6-(2,4-bis(trifluoromethyl)phenyl)-1-neopentyl-1H-indol-3-yl)ethyl)cyclopropanesulfonamide]",500 to 3000
7,"CC(C)(C)Cn1cc(CCNS(=O)(=O)C2CC2)c2ccc(-c3ccc(Cl)cc3C#N)cc21 [Example 482, N-(2-(6-(4-chloro-2-cyanophenyl)-1-neopentyl-1H-indol-3-yl)ethyl)cyclopropanesulfonamide]",< 500
8,"CC(C)(C)Cn1cc(CCNS(=O)(=O)C2CC2)c2ccc(-c3cc(C(F)(F)F)ccc3C(F)(F)F)cc21 [Example 483, N-(2-(6-(2,5-bis(trifluoromethyl)phenyl)-1-neopentyl-1H-indol-3-yl)ethyl)cyclopropanesulfonamide]",< 500
9,"CC(C)(C)Cn1cc(CCNS(=O)(=O)C2CC2)c2ccc(-c3cc(C(F)(F)F)ccc3Cl)cc21 [Example 484, N-(2-(6-(2-chloro-5-(trifluoromethyl)phenyl)-1-neopentyl-1H-indol-3-yl)ethyl)cyclopropanesulfonamide]",< 500
10,"CC(C)(C)Cn1cc(CCNS(=O)(=O)C2CC2)c2ccc(-c3cccc(C(F)(F)F)c3Cl)cc21 [Example 485, N-(2-(6-(2-chloro-3-(trifluoromethyl)phenyl)-1-neopentyl-1H-indol-3-yl)ethyl)cyclopropanesulfonamide]",500 to 3000
11,"CC(C)(C)Cn1cc(CCNS(=O)(=O)C2CC2)c2ccc(-c3cccc(C#N)c3Cl)cc21 [Example 486, N-(2-(6-(2-chloro-3-cyanophenyl)-1-neopentyl-1H-indol-3-yl)ethyl)cyclopropanesulfonamide]",500 to 3000
12,"CC(C)(C)Cc1cn(CCNS(=O)(=O)C2CC2)c2ccc(-c3ccc(C(F)(F)F)cc3C#N)cc12 [Example 487, N-(2-(5-(2-cyano-4-(trifluoromethyl)phenyl)-3-neopentyl-1H-indol-1-yl)ethyl)cyclopropanesulfonamide]",500 to 3000
13,"CC1(Cn2cc([C@H](NS(=O)(=O)C3CC3)C(F)(F)F)c3cc(F)c(-c4ccccc4C(F)(F)F)cc32)COC1 [Example 489, N-[(1S)-2,2,2-trifluoro-1-[5-fluoro-1-[(3-methyloxetan-3-yl)methyl]-6-[2-(trifluoromethyl)phenyl]indol-3-yl]ethyl]cyclopropanesulfonamide]",< 500
